Here are results for four compounds from US20230105108A1, “COMPOUNDS FOR THE TREATMENT OF BACTERIAL INFECTIONS AND POTENTIATION OF ANTIBIOTICS” (GEORGIA STATE UNIVERSITY RESEARCH FOUNDATION, INC., priority 2019, published 2023).

Where a name gives a salt, the structure may show the parent alone. Read-outs that look alike come from different tables or passages of the source. Bounds are passed on as bounds.

As a reminder, the CC50 is the concentration at which the toxic effect on the cells reaches its halfway point. High values mean lower toxicity to the cells, low ones greater toxicity to the cells. By IC50 is commonly meant the concentration at which inhibition is half-maximal. The low end stands for inhibition by little substance, the high end for a need for much substance.

Data set [1] in a line: Cytotoxicity in H9c2 cells (CCK-8). It counts as cell-based. To be noted: rat, H9c2 cells; H9c2 cell line. An outline of the steps: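 H9c2 cells were grown in DMEM with 10% FBS, seeded the day before, and exposed to a range of di-amidine concentrations for 24 h at 37 °C, 5% CO2. Viability was read by CCK-8 after 3 h at 37 °C as absorbance at 450 nm.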
The subject of data set [2] is MRSA and B. subtilis. The data set is described as follows: Composition of mixed MRSA and B. subtilis under antibiotic pressure. As to conditions: 8 ng/ml trovafloxacin and 1.5 μg/ml MD-108. It is filed as cell-based. As for the experimental part: (§1) FIG. 11 contains graphs showing that MD-108 can change the composition between MRSA and E. coli (Panel A) or MRSA and B. subtilis (Panel B) when the bacteria strains are under the same antibiotic pressure.
(§2) As a proof of concept, the relative ratio of E. coli and MRSA or B. subtilis and MRSA was measured with and without MD-108 (FIGS. 11A and B). […] When supplied with 1.5 μg/ml MD-108 and 8 ng/ml trovafloxacin, the MRSA inhibition was achieved, leaving E. coli as the dominant species (89% of the bacteria population).

The test system of data set [3] is MRSA (ATCC 33592). Briefly: MIC determination and sensitization fold on MRSA. It counts as cell-based, methicillin-resistant Staphylococcus aureus. As to conditions: for sensitization fold with 2.7 μg/ml DB2560: MRSA towards the antibiotic.
A short description of data set [4]: Cytotoxicity on mammalian cells (CCK-8), HEK293. It is filed as cell-based. To be noted: human, HEK293 cells; HEK293 cell line; 24 h. Summed up: (§3)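 Cells seeded a day ahead to ~80% confluency, exposed to varied compound concentrations for 24 h at 37° C, 5% CO2. CCK-8 added for a further 2 h and OD 450 nm read; viability expressed as percent of untreated control.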

The test system of data set [5] is HEK293 cells. The data set is described as follows: Cytotoxicity on mammalian cells (CCK-8), HEK293. It is filed as cell-based. As to conditions: Homo sapiens, HEK293. An outline of the steps:
as §3

For data set [6], the system named is E. coli (ATCC 25922). Briefly: MIC determination, sensitization fold and FIC index on E. coli. It is filed as cell-based. As to conditions: for MIC: Escherichia coli; for MIC of AB with MD-124: MD-124 concentration 5 μg/ml. Summed up: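 MICs read by OD600 as >90% growth inhibition after two-fold rifampicin dilutions, 5×10^5 CFU/ml E. coli, 24 h, 37 °C, shaken, cation-adjusted Mueller Hinton II broth.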

Data set [7] relates to M. smegmatis. Briefly: MIC on mycobacteria. It is filed as cell-based, Mycobacterium smegmatis. To be noted: Mycolicibacterium smegmatis, read-out: MIC on mycobacteria.
Data set [8] concerns MRSA and E. coli. Briefly: Composition of mixed MRSA and E. coli under antibiotic pressure. It is filed as cell-based. As to the method:
as §1, §2

Data set [9] deals with B. subtilis. The data set is described as follows: MIC determination and sensitization fold on B. subtilis. It is filed as cell-based. To be noted: for sensitization fold with 5.5 μg/ml DB2560: B. subtilis towards the antibiotic.
Data set [10] can be described thus: Cytotoxicity on mammalian cells (CCK-8), NIH3T3. It counts as cell-based. To be noted: mouse, NIH3T3 cells, 3T3 cell line. Summed up:
as §3

Data set [11] has as its system A. baumannii (ATCC 17978). Briefly: MIC, sensitization fold and FIC index on A. baumannii. It is filed as cell-based. As to conditions: for Sensitization fold with 5 μg/ml MD-124: A. baumannii towards the antibiotic.
Data set [12] relates to mcr-1 over-expressing E. coli strains. Briefly: microbe, parasite or virus in culture. It is filed as cell-based. As to conditions: for MIC: Escherichia coli; for Sensitization fold with 5 μg/ml MD-124: mcr-1 over-expression E. coli strain towards the antibiotic.
For data set [13], the system named is A. baumannii. Briefly: MIC of rifampicin on A. baumannii with bacterial sensitizer Compound D. It counts as cell-based. To be noted: Acinetobacter baumannii; antibiotic alone; read-out: minimum inhibitory concentration (MIC) on A. baumannii. As to the method:
Bacteria were cultured with the antibiotic at various concentrations in the presence or absence of bacterial sensitizer, Compound D, for 24 hours at 37° C.

Data set [14] deals with NDM-1 expressing E. coli strain. The data set is described as follows: microbe, parasite or virus in culture. It is filed as cell-based. To be noted: for Sensitization fold with 5 μg/ml MD-124: NDM-1 expressing E. coli towards the antibiotic.
Data set [15] relates to K. pneumoniae (43816). Briefly: MIC, sensitization fold and FIC index on K. pneumoniae. It is filed as cell-based.
For data set [16], the system named is E. coli expressing mcr-1. The data set is described as follows: Ex vivo skin burn infection model, mcr-1 positive E. coli. To be noted: human skin burn, hypromellose gel; 3‰ (w/w). As for the experimental part: To achieve topical application, compounds were formulated as hypromellose gel. […] After that, skin was loaded with hypromellose gel with different antibiotics and cultured at 37° C. for 24 hours. After 24 hours incubation, the skin sample was homogenized and the supernatants were serially diluted and plated on agar plates, from which bacterial counts on the skin was calculated. […] 1‰ polymyxin B hypromellose gel was used as positive control.

Data set [17] deals with E. coli. Briefly: Lysozyme assay (outer membrane disruption). It counts as cell-based. To be noted: 50 μg/ml lysozyme, 25 μg/ml sensitizer, 10 min. As for the experimental part: Lysozyme assay to evaluate the disruption of Gram-negative bacteria out membrane by bacterial sensitizers. Lysozyme assay was performed based on literature reported method. E. coli was cultured in Mueller Hinton II cation-adjusted broth for overnight, centrifuged at 3000 g for 10 min, washed with HEPES buffer (pH=7.2) and then centrifuged again to obtain bacteria pallet. The pallet was then gently resuspended in HEPES buffer with 5 mM NaCN to obtain an E. coli suspension with OD600 between 0.8˜1.0. On a 96-well plate, each well was supplied with 100 μl lysozyme solution (100 μg/ml) containing 50 or 100 μg/ml bacterial sensitizers in HEPES buffer. To each well was added 100 μl E. coli suspension. The final concentration of lysozyme was 50 μg/ml. The plate was incubated at room temperature for 10 min and the OD600 was recorded. E. coli was also incubated with bacterial sensitizers in the absence of lysozyme to test if bacterial sensitizers would directly induce bacterial lysis. E. coli that was incubated with lysozyme alone or E. coli without any treatment were also used as negative control.

[18] abbreviates: E. coli towards the antibiotic, MD-124 5 μg/ml.
Where [19] appears, read: mcr-1 over-expression E. coli strain (MIC of polymyxin B 30 μg/ml).

`Cc1cc(CCc2ccc(C(=N)N)cc2)cc(CCc2ccc(C(=N)N)cc2)c1` [MD-108, 4,4′-((5-methyl-1,3-phenylene)bis(ethane-2,1-diyl))dibenzimidamide dihydrochloride]: the values for the CC50 at 24 h in data set [1], in [4] and in [10] were 12.5 µM, 50 µM and 50 µM, respectively. Further, the “B. subtilis share of the composition” value in data set [2] amounted to 99.5%. For the same compound, the Sensitization fold is on record as 16-fold at 3 μM in data set [3] (MRSA, rifampicin, compound at 3 μM); 16 fold in data set [6] (10 μM compound, rifampicin as the antibiotic (Table 6)); 16-fold at 10 μM in data set [6] (E. coli, rifampicin, compound at 10 μM); 32-fold at 25 μM; in data set [6] (E. coli, rifampicin, compound at 25 μM); 32-fold at 6 μM in [9] (B. subtilis, erythromycin, compound at 6 μM). The compound further displayed an IC50 in data set [5] of 50 µM. For the same compound, the MIC in data set [6] (ATCC25922, 24 h) was 100 µM; in [7], 6 to 12 µM; in data set [9] (Bacillus subtilis, 24 h, B. subtilis, compound alone, read-out: MIC), 25 µM. Besides, in [8] (1.5 μg/ml MD-108 and 8 ng/ml trovafloxacin), the “E. coli share of the bacteria population” value was 89%.

For `CO[C@H]1/C=C/O[C@@]2(C)Oc3c(C)c(O)c4c(O)c(c(/C=N/N5CCN(C)CC5)c(O)c4c3C2=O)NC(=O)/C(C)=C\C=C\[C@H](C)[C@H](O)[C@@H](C)[C@@H](O)[C@@H](C)[C@H](OC(C)=O)[C@@H]1C` [Rifampicin], in data set [3], the “sensitization fold with 2.7 μg/ml DB2560” value came to 32 fold. Further, in data set [6] (setting [18]), the Sensitization fold worked out at 516 fold. The “fractional inhibitory concentration (FIC) index between MD-124 and antibiotic” value in data set [6] (E. coli, checkerboard assay) is reported as 0.09. Also, the MIC was 0.6 ng/mL in data set [6] (ATCC25922, E. coli, with ~10 μg/ml MD-124, read-out: MIC of rifampicin (checkerboard assay)); 0.01 µg/mL in data set [11] (Acinetobacter baumannii, ATCC17978, A. baumannii, checkerboard assay, read-out: MIC of rifampicin with 7 pg/ml of the sensitizer (MD-124)); 5 µg/mL in [12] (mcr-1 over-expression E. coli strain (MIC of polymyxin B 30 μg/ml), read-out: MIC of AB only); ≤ 0.2 µg/mL in data set [12] (read-out: MIC of AB with 5 μg/ml MD-124, mcr-1 over-expression E. coli strain (MIC of polymyxin B 30 μg/ml)); 5 µg/mL in data set [12] (strain mcr-1 A, read-out: MIC of Rif only); 5 µg/mL in [12] (strain mcr-1 B, read-out: MIC of Rif only). Moreover, the MIC in data set [13] is 5 µg/mL; in data set [14] (Escherichia coli, read-out: MIC of rifampicin with 10 μg/ml MD-124, NDM-1 expressing E. coli) it was 0.012 µg/mL. Besides, the “Sensitization fold with 5 μg/ml MD-124” value in data set [11] came to 128 fold; in [12], 32 fold; in data set [14], 516 fold; in [15] (K. pneumoniae towards the antibiotic), 252 fold. Further, the “FIC index between MD-124 and antibiotic” value in data set [11] (A. baumannii, checkerboard assay) turned out to be 0.14; in data set [12] (mcr-1 expressing E. coli), 0.37; in data set [14] (NDM-1 expressing E. coli) it was 0.09; in data set [15] (K. pneumoniae) it was 0.15. Also, the “MIC of AB with 5 μg/ml MD-124” value in data set [12] (setting [19]) was determined as 0.16 µg/mL; in [15] (K. pneumoniae), 0.016 µg/mL. Further, the “FIC index between DB2560 and antibiotic” value in [9] (B. subtilis) is 0.11. In addition, in data set [9] (B. subtilis), the “MIC of antibiotic in the presence of 5.5 μg/ml of DB2560” value is 0.037 µg/mL. The “sensitization fold with 5.5 μg/ml DB2560” value in data set [9] turned out to be 256 fold.

For `N[C@@H]1[C@H]2CN(c3nc4c(cc3F)c(=O)c(C(=O)O)cn4-c3ccc(F)cc3F)C[C@@H]12` [Trovafloxacin, reference compound], in [3], the “sensitization fold with 2.7 μg/ml DB2560” value was 16 fold. In [6] (setting [18]), the Sensitization fold was found to be 32 fold. The “MIC of AB with MD-124” value in [6] (E. coli) came to 0.0015 µg/mL. In addition, the figures for the “Sensitization fold with 5 μg/ml MD-124” value in data set [11] and in [14] were 2 fold and 32 fold, respectively. Further, the “MRSA share of the bacteria population” value in data set [8] (trovafloxacin 16 ng/ml) was determined as 78%. Besides, the “sensitization fold with 5.5 μg/ml DB2560” value in data set [9] turned out to be 8 fold.

On to Polymyxin B, for which the “MIC of AB only” value in [6] (E. coli (wild type), antibiotic alone) amounted to 1.2 µg/mL. Further, the Sensitization fold in data set [6] (setting [18]) worked out at 32 fold. Besides, in data set [6] (E. coli), the “MIC of AB with MD-124” value stood at 0.04 µg/mL. Besides, the results for the “MIC of AB with 5 μg/ml MD-124” value in data set [11] (A. baumannii), in data set [12] (setting [19]) and in data set [14] (NDM-1 expressing E. coli) were 0.04 µg/mL, 1 µg/mL and 0.32 µg/mL, respectively. The “Sensitization fold with 5 μg/ml MD-124” value was determined as 4 fold in data set [11], 30 fold in [12] and 8 fold in data set [14]. Besides, the “MFC of AB only” value in [11] (A. baumannii, antibiotic alone) stood at 1.6 µg/mL; in [14] (NDM-1 expressing E. coli, antibiotic alone) it was 2.5 µg/mL. In addition, the “MIC of Rif polymyxin B” value in data set [12] (strain mcr-1 A) stood at 10 µg/mL; in data set [12] (strain mcr-1 B), 30 µg/mL. In data set [16], the “effect on bacterial load as compared with vehicle group” value is on record as “only had minor effects”. Further, the “bacterial lysis by lysozyme in the presence of sensitizer” value in data set [17] is on record as “led to bacterial lysis”.
